Earlier results on one compound are cited in patent publication US20250235429A1, “TREATMENT OF DISEASES VIA ADMINISTRATION OF BUNTANETAP AND AN ANTIDIABETIC AGENT” (ANNOVIS BIO, INC., priority 2024, published 2025).

The structures appear in SMILES notation.

Series [1] deals with APP, Tau, and aSYN in the cerebrospinal fluid (CSF) of MCI subjects. The following applies: cited from earlier work.
The test system of the next series is tau. The following applies: Human tau mice; unpublished observation; cited from earlier work.

As to `CN1CC[C@]2(C)c3cc(OC(=O)Nc4ccccc4)ccc3N(C)C12` (stereo partly drawn) [Buntanetap, (3aR)-1,3a,8-trimethyl-1,2,3,3a,8,8a-hexahydropyrrolo[2,3-b]indol-5-yl phenylcarbamate], the “levels of APP, Tau, and aSYN in the cerebrospinal fluid (CSF)” value in series [1] (MCI subjects, 4×60 mg/day) is given as “normalized”. Moreover, in series [1] (MCI subjects), the “CSF A342” value was “trend to lower”; the “CSF levels of sAPPa, sAPPP, t-tau, p-tau, and specific inflammatory markers” value is “significantly lowered”. Also, the inflammation entry in series [1] (human CSF of MCI subjects) is given as “lowered”. For the same compound, in the series with tau, the tau in vivo entry is recorded as “lowers”.
